Ki data for seven compounds are collected here from ChEMBL document CHEMBL3124744, “4-Functionalized 1,3-diarylpyrazoles bearing benzenesulfonamide moiety as selective potent inhibitors of the tumor associated carbonic anhydrase isoforms IX and XII” (Eur J Med Chem, 2014).

One experiment has as its target Carbonic anhydrase 9 (Homo sapiens, UniProt Q16790).
The next experiment concerns the target Carbonic anhydrase 12 (Homo sapiens, UniProt O43570).

Carbonic anhydrase 12, sequence (O43570 whole entry): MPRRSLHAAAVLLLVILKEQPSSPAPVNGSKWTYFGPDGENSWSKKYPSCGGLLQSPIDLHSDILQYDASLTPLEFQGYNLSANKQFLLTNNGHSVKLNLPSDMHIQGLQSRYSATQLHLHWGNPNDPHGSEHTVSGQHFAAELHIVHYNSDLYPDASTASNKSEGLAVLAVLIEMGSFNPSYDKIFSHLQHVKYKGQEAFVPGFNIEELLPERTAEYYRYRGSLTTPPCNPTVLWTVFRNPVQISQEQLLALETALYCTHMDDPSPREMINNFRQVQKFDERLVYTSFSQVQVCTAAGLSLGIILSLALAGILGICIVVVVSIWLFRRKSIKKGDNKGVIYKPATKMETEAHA
Description for Carbonic anhydrase 12: Inhibition of human carbonic anhydrase 12-mediated CO2 hydration preincubated for 10 mins by stopped-flow assay
Description for Carbonic anhydrase 9: Inhibition of human carbonic anhydrase 9-mediated CO2 hydration preincubated for 10 mins by stopped-flow assay

Consider `NC(=O)c1cn(-c2ccc(S(N)(=O)=O)cc2)nc1-c1ccc(Cl)cc1`, for which affinity on Carbonic anhydrase 9 was put at a Ki of 5.2 nM.
Same read-out and setting: the result for `NC(=O)c1cn(-c2ccc(S(N)(=O)=O)cc2)nc1-c1ccc(F)cc1` reads 2.3 nM.
As for `COC(=O)c1cn(-c2ccc(S(N)(=O)=O)cc2)nc1-c1ccc(Br)cc1`, the Ki on Carbonic anhydrase 12 came to 43.7 nM.
On to `NC(=O)c1cn(-c2ccc(S(N)(=O)=O)cc2)nc1-c1cccs1`, for which, on Carbonic anhydrase 9, affinity was put at a Ki of 2.1 nM.
For `NC(=O)c1cn(-c2ccc(S(N)(=O)=O)cc2)nc1-c1ccc([N+](=O)[O-])cc1`, at Carbonic anhydrase 9, affinity was put at a Ki of 49 nM.
Still for that read-out and setting: the result for `COC(=O)c1cn(-c2ccc(S(N)(=O)=O)cc2)nc1-c1ccc([N+](=O)[O-])cc1` reads 5.2 nM; that for `COC(=O)c1cn(-c2ccc(S(N)(=O)=O)cc2)nc1-c1ccc(Cl)cc1`, 17.1 nM.
